From patent US9108944B2, “Androgen receptor modulators and uses thereof” (ARAGON PHARMACEUTICALS, INC., priority 2010, dated 2015)

Columns and labels:
AR-VP16 [1] = target: T1, AR-VP16 (Homo sapiens, UniProt P10275); experiment: AR-VP16 DNA Binding Assay, antagonist mode (HepG2 cells, 0.1 nM R1881); type: cell-based
T1 sequence (P10275 560-920 limits assumed): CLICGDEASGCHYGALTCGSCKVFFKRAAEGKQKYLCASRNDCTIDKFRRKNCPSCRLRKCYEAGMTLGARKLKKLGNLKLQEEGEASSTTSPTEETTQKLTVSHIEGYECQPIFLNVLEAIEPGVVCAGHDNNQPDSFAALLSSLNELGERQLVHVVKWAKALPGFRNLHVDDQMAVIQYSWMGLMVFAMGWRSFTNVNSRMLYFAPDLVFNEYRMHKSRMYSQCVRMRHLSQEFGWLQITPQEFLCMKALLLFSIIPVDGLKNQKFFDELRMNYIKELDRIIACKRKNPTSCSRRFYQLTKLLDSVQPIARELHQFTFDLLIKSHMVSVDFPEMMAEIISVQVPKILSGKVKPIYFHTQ
In short: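 Transfected HepG2 cells expressing AR-VP16 received serially diluted compound in charcoal-stripped-serum RPMI the day after transfection, with 0.1 nM R1881 (final) added only for antagonist testing. After 48 h, cells were lysed for measurement.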

AR-VP16 [2] = target: T1, AR-VP16; experiment: AR-VP16 DNA Binding Assay, agonist mode (HepG2 cells); type: cell-based; settings: Emax >20x DMSO control = agonist

SMILES | IC50 (AR-VP16 [1]) | ARVP16 DNA Binding Assay (Agonist mode): Agonist? (AR-VP16 [2])
CCOC(=O)CNC(=O)c1ccc(N2C(=S)N(c3cnc(C#N)c(C(F)(F)F)c3)C(=O)C23CCC3)cc1F [Compound 245, Ethyl 2-(4-(7-(6-cyano-5-(trifluoromethyl)pyridin-3-yl)-8-oxo-6-thioxo-5,7-diazaspiro[3.4]octan-5-yl)-2-fluorobenzamido)acetate] | > 1000 nM | No (Agonist defined as a compound whose Emax in the ARVP16 DNA Binding Assay (Agonist mode) is >20x DMSO control)
Cc1ccc(N2C(=S)N(c3ccc(C#N)c(C(F)(F)F)n3)C(=O)C23CCC3)cc1 [Compound 34, 6-(8-Oxo-6-thioxo-5-(p-tolyl)-5,7-diazaspiro[3.4]octan-7-yl)-2-(trifluoromethyl)nicotinonitrile] | > 1000 nM | No (Agonist defined as a compound whose Emax in the ARVP16 DNA Binding Assay (Agonist mode) is >20x DMSO control)
Cc1cc(N2C(=O)C3(CCC3)N(c3ccc(C(=O)NCc4ccc(F)cc4)c(F)c3)C2=S)cnc1C#N [Compound 293, 4-(7-(6-Cyano-5-methylpyridin-3-yl)-8-oxo-6-thioxo-5,7-diazaspiro[3.4]octan-5-yl)-2-fluoro-N-(4-fluorobenzyl)benzamide] | < 1000 nM | No (Agonist defined as a compound whose Emax in the ARVP16 DNA Binding Assay (Agonist mode) is >20x DMSO control)
N#Cc1ncc(N2C(=O)C3(CCC3)N(c3ccc(F)c(C(=O)NCCN4CCOCC4)c3)C2=S)cc1C(F)(F)F [Compound 253, 5-(7-(6-Cyano-5-(trifluoromethyl)pyridin-3-yl)-8-oxo-6-thioxo-5,7-diazaspiro[3.4]octan-5-yl)-2-fluoro-N-(2-morpholinoethyl)benzamide] | > 1000 nM | No (Agonist defined as a compound whose Emax in the ARVP16 DNA Binding Assay (Agonist mode) is >20x DMSO control)
N#Cc1ncc(N2C(=O)C3(CCC3)N(c3ccc(OCCN4CCCCC4)cc3F)C2=S)cc1C(F)(F)F [Compound 187, 5-(5-(2-Fluoro-4-(2-(piperidin-1-yl)ethoxy)phenyl)-8-oxo-6-thioxo-5,7-diazaspiro[3.4]octan-7-yl)-3-(trifluoromethyl)picolinonitrile] | < 1000 nM | No (Agonist defined as a compound whose Emax in the ARVP16 DNA Binding Assay (Agonist mode) is >20x DMSO control)
Cc1ccc(N2C(=S)N(c3cnc(C#N)c(C(F)(F)F)c3)C(=O)C2(C)C)cc1 [Compound 33, 5-(4,4-Dimethyl-5-oxo-2-thioxo-3-(p-tolyl)imidazolidin-1-yl)-3-(trifluoromethyl)picolinonitrile] | < 1000 nM | No (Agonist defined as a compound whose Emax in the ARVP16 DNA Binding Assay (Agonist mode) is >20x DMSO control)
CN1CCN(CCCNC(=O)c2ccc(N3C(=S)N(c4cnc(C#N)c(C(F)(F)F)c4)C(=O)C34CCC4)cc2F)CC1 [Compound 269, 4-(7-(6-Cyano-5-(trifluoromethyl)pyridin-3-yl)-8-oxo-6-thioxo-5,7-diazaspiro[3.4]octan-5-yl)-2-fluoro-N-(3-(4-methylpiperazin-1-yl)propyl)benzamide] | < 1000 nM | No (Agonist defined as a compound whose Emax in the ARVP16 DNA Binding Assay (Agonist mode) is >20x DMSO control)
Cc1ccc(-c2ccc(N3C(=S)N(c4cnc(C#N)c(C)c4)C(=O)C34CCC4)cc2)o1 [Compound 7, 3-Methyl-5-(5-(4-(5-methylfuran-2-yl)phenyl)-8-oxo-6-thioxo-5,7-diazaspiro[3.4]octan-7-yl)picolinonitrile] | < 1000 nM | No (Agonist defined as a compound whose Emax in the ARVP16 DNA Binding Assay (Agonist mode) is >20x DMSO control)
COCCOc1ccc(N2C(=S)N(c3cnc(C#N)c(C(F)(F)F)c3)C(=O)C23CCC3)cc1F [Compound 131, 5-(5-(3-Fluoro-4-(2-methoxyethoxy)phenyl)-8-oxo-6-thioxo-5,7-diazaspiro[3.4]octan-7-yl)-3-(trifluoromethyl)picolinonitrile] | < 1000 nM | No (Agonist defined as a compound whose Emax in the ARVP16 DNA Binding Assay (Agonist mode) is >20x DMSO control)
Cc1ccc(N2C(=S)N(c3cnc(-c4cccnc4)c(C(F)(F)F)c3)C(=O)C23CCC3)cc1 [Compound 61, 6-Thioxo-5-(p-tolyl)-7-(3-(trifluoromethyl)-[2,3′-bipyridin]-5-yl)-5,7-diazaspiro[3.4]octan-8-one] | > 1000 nM | No (Agonist defined as a compound whose Emax in the ARVP16 DNA Binding Assay (Agonist mode) is >20x DMSO control)
N#Cc1ncc(N2C(=O)C3(CCC3)N(c3ccc(F)c(C(=O)O)c3)C2=S)cc1C(F)(F)F [Compound 226, 5-(7-(6-Cyano-5-(trifluoromethyl)pyridin-3-yl)-8-oxo-6-thioxo-5,7-diazaspiro[3.4]octan-5-yl)-2-fluorobenzoic acid] | > 1000 nM | No (Agonist defined as a compound whose Emax in the ARVP16 DNA Binding Assay (Agonist mode) is >20x DMSO control)
N#Cc1ncc(N2C(=O)C3(CCC3)N(c3ccc(F)cc3O)C2=S)cc1C(F)(F)F [Compound 38, 5-(5-(4-Fluoro-2-hydroxyphenyl)-8-oxo-6-thioxo-5,7-diazaspiro[3.4]octan-7-yl)-3-(trifluoromethyl)picolinonitrile] | > 1000 nM | No (Agonist defined as a compound whose Emax in the ARVP16 DNA Binding Assay (Agonist mode) is >20x DMSO control)
Cc1ccc(CNC(=O)c2ccc(N3C(=S)N(c4cnc(C#N)c(C(F)(F)F)c4)C(=O)C34CCC4)cc2F)o1 [Compound 291, 4-(7-(6-Cyano-5-(trifluoromethyl)pyridin-3-yl)-8-oxo-6-thioxo-5,7-diazaspiro[3.4]octan-5-yl)-2-fluoro-N-((5-methylfuran-2-yl)methyl)benzamide] | < 1000 nM | No (Agonist defined as a compound whose Emax in the ARVP16 DNA Binding Assay (Agonist mode) is >20x DMSO control)
N#Cc1ncc(N2C(=O)C3(CCC3)N(c3cccc(F)c3)C2=S)cc1C(F)(F)F [Compound 27, 5-(5-(3-Fluorophenyl)-8-oxo-6-thioxo-5,7-diazaspiro[3.4]octan-7-yl)-3-(trifluoromethyl)picolinonitrile] | < 1000 nM | No (Agonist defined as a compound whose Emax in the ARVP16 DNA Binding Assay (Agonist mode) is >20x DMSO control)
COC(=O)CCCc1ccc(N2C(=S)N(c3cnc(C#N)c(C(F)(F)F)c3)C(=O)C23CCC3)cc1 [Compound 122, Methyl 4-(4-(7-(6-cyano-5-(trifluoromethyl)pyridin-3-yl)-8-oxo-6-thioxo-5,7-diazaspiro[3.4]octan-5-yl)phenyl)butanoate] | > 1000 nM | No (Agonist defined as a compound whose Emax in the ARVP16 DNA Binding Assay (Agonist mode) is >20x DMSO control)
Cc1cc(N2C(=O)C3(CCC3)N(c3ccc(C(=O)Nc4cccc(Cl)c4)c(F)c3)C2=S)cnc1C#N [Compound 295, N-(3-Chlorophenyl)-4-(7-(6-cyano-5-methylpyridin-3-yl)-8-oxo-6-thioxo-5,7-diazaspiro[3.4]octan-5-yl)-2-fluorobenzamide] | < 1000 nM | No (Agonist defined as a compound whose Emax in the ARVP16 DNA Binding Assay (Agonist mode) is >20x DMSO control)
CN1CCN(CCOc2ccc(N3C(=S)N(c4cnc(C#N)c(C(F)(F)F)c4)C(=O)C34CCC4)cc2)CC1 [Compound 178, 5-(5-(4-(2-(4-Methylpiperazin-1-yl)ethoxy)phenyl)-8-oxo-6-thioxo-5,7-diazaspiro[3.4]octan-7-yl)-3-(trifluoromethyl)picolinonitrile] | < 1000 nM | No (Agonist defined as a compound whose Emax in the ARVP16 DNA Binding Assay (Agonist mode) is >20x DMSO control)
N#Cc1ncc(N2C(=O)C3(CCC3)N(c3ccc(C(=O)NCCCN4CCCC4)c(F)c3)C2=S)cc1C(F)(F)F [Compound 237, 4-(7-(6-Cyano-5-(trifluoromethyl)pyridin-3-yl)-8-oxo-6-thioxo-5,7-diazaspiro[3.4]octan-5-yl)-2-fluoro-N-(3-(pyrrolidin-1-yl)propyl)benzamide] | < 1000 nM | No (Agonist defined as a compound whose Emax in the ARVP16 DNA Binding Assay (Agonist mode) is >20x DMSO control)
Cc1cc(N2C(=O)C3(CCC3)N(c3ccc(-c4cncc(F)c4)cc3)C2=S)cnc1C#N [Compound 105, 5-(5-(4-(5-Fluoropyridin-3-yl)phenyl)-8-oxo-6-thioxo-5,7-diazaspiro[3.4]octan-7-yl)-3-methylpicolinonitrile] | < 1000 nM | No (Agonist defined as a compound whose Emax in the ARVP16 DNA Binding Assay (Agonist mode) is >20x DMSO control)
N#Cc1ncc(N2C(=O)C3(CCC3)N(c3ccc(F)c(OCCCc4ccccc4)c3)C2=S)cc1C(F)(F)F [Compound 163, 5-(5-(4-Fluoro-3-(3-phenylpropoxy)phenyl)-8-oxo-6-thioxo-5,7-diazaspiro[3.4]octan-7-yl)-3-(trifluoromethyl)picolinonitrile] | > 1000 nM | No (Agonist defined as a compound whose Emax in the ARVP16 DNA Binding Assay (Agonist mode) is >20x DMSO control)
